Our source for the EC50 values is article PMC7312353, “Lipid Raft Destabilization Impairs Mouse TRPA1 Responses to Cold and Bacterial Lipopolysaccharides” (International Journal of Molecular Sciences, 2020).

Molecules are shown by their SMILES.

For the assay, the target named is mouse TRPA1 (mTRPA1), Transient receptor potential ankyrin 1 cation channel (Mus musculus, UniProt Q8BLA8). Put plainly: Fura-2 ratiometric Ca2+ imaging, concentration-response in CHO-K1 cells stably transfected with mTRPA1. Format: cell-based.
mouse TRPA1 (mTRPA1), Transient receptor potential ankyrin 1 cation channel, sequence (Q8BLA8 whole entry): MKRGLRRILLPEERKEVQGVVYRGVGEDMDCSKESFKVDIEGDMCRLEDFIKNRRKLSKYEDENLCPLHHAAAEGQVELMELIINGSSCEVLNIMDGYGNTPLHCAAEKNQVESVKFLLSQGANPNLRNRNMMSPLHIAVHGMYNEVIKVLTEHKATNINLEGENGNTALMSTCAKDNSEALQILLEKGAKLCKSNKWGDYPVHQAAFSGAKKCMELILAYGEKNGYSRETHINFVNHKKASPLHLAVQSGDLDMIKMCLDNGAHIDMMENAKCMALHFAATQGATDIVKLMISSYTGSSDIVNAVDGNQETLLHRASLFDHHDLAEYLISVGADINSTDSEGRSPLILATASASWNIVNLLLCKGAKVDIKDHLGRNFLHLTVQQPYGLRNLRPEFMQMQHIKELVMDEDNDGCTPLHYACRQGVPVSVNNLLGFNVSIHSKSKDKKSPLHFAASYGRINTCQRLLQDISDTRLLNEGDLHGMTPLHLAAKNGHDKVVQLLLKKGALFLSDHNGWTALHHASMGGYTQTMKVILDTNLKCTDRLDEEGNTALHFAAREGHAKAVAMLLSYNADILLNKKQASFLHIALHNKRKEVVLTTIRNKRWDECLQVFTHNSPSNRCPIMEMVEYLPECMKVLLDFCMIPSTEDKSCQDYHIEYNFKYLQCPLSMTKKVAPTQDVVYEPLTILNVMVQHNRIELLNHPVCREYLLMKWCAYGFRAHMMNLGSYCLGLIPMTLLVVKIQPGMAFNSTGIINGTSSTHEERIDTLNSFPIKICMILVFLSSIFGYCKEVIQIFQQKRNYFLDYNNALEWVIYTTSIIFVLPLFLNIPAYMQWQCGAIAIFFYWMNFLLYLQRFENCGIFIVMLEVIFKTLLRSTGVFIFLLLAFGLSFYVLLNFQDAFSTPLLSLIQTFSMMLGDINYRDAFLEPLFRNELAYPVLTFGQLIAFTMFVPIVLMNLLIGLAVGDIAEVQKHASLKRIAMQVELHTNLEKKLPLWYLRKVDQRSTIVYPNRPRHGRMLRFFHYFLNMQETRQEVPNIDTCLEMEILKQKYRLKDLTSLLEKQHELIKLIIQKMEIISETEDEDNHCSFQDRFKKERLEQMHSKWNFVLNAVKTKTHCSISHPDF

With `C=CCN=C=S` [AITC, allyl isothiocyanate], the midpoint of the response, the EC50, lay at 4.6 ± 1.1 µM.
